Assay results reported in PMC8880039, “Kinetic and Molecular Docking Studies to Determine the Effect of Inhibitors on the Activity and Structure of Fused G6PD::6PGL Protein from Trichomonas vaginalis” (Molecules, 2022).

What follows are compounds tested against T1, fused TvG6PD::6PGL enzyme (Trichomonas vaginalis, UniProt A2EC78) (assay: Determination of inhibition type (double reciprocal plots)). Details: G6P varied, NADP+ saturating; Lineweaver–Burk.
T1 sequence (A2EC78 entry or part of it): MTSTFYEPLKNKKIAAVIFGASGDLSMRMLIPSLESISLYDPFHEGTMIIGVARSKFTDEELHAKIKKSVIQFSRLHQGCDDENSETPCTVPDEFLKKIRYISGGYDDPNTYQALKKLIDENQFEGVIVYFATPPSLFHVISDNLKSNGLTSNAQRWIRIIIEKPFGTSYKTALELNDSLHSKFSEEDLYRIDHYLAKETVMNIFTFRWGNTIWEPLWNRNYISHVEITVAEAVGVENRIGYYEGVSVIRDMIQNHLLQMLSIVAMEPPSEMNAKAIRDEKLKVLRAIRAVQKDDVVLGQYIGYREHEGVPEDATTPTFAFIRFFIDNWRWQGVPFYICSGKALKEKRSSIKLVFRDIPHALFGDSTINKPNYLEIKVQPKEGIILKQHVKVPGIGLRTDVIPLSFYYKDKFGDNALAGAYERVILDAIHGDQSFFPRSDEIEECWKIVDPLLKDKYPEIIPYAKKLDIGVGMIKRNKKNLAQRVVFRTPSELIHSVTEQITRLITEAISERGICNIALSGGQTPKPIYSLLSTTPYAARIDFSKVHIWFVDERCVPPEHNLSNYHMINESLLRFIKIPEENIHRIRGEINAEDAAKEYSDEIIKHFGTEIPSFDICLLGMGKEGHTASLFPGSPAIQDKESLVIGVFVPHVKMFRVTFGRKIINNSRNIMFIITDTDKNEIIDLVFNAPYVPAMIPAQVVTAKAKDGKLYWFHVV
Type: biochemical
Text: Figure 4 Determination of inhibition type of selected compounds. Lineweaver–Burk plots for the JMM-3, CNZ-3, CNZ-17, and MCC-7 compounds with G6P (A,C,E,G) or NADP^+ (B,D,F,H) substrates. The data represent the mean ± of three independent experiments, and standard errors were lower than 5%. […] Only the inhibition type (a class) is printed as a plot label, and it is uncertain whether that counts as a result. The concentrations in the plot legends stand alone and were left out.
To determine the inhibition mechanism of the four selected hit compounds over the T. vaginalis-fused G6PD::6PGL protein, we monitored the initial velocities in the presence of two fixed concentrations of each of the inhibitory compounds. The initial velocities were determined at different substrate concentrations (from 0 to 140 µM). […] Subsequently, the initial velocities for each physiological substrate (G6P and NADP^+) were analyzed using the double reciprocal plot method.
In the case of `O=C(COc1ccc(/C=C2\SC(=O)NC2=O)cc1)NC1CCN(Cc2ccccc2)CC1` [MCC-7], the “inhibition type for G6P substrate” value is reported as “non-competitive-type inhibition”.
In the case of `O=C(Nc1ccc(Cl)cc1)Nc1ncc([N+](=O)[O-])s1` [CNZ-3], the “inhibition type for G6P substrate” value is reported as “noncompetitive-type inhibition”.
In the case of `COc1cc(CCC(=O)O)ccc1OCc1ccc(-c2ccccc2C#N)cc1` [JMM-3], the “inhibition type for G6P substrate” value is reported as “uncompetitive-type inhibition”.
With `COc1ccc(NC(=O)Nc2ncc([N+](=O)[O-])s2)cc1` [CNZ-17] the “inhibition type for G6P substrate” value was “uncompetitive-type inhibition”.

Same assay, conditions: NADP+ varied, G6P saturating; Lineweaver–Burk
`O=C(COc1ccc(/C=C2\SC(=O)NC2=O)cc1)NC1CCN(Cc2ccccc2)CC1` [MCC-7] was tested, and the “inhibition type for NADP+ substrate” value was “uncompetitive type”.
For `O=C(Nc1ccc(Cl)cc1)Nc1ncc([N+](=O)[O-])s1` [CNZ-3], the “inhibition type for NADP+ substrate” value was “competitive-type inhibition”.
In the case of `COc1cc(CCC(=O)O)ccc1OCc1ccc(-c2ccccc2C#N)cc1` [JMM-3], the “inhibition type for NADP+ substrate” value is reported as “uncompetitive-type inhibition”.
In the case of `COc1ccc(NC(=O)Nc2ncc([N+](=O)[O-])s2)cc1` [CNZ-17], the “inhibition type for NADP+ substrate” value is reported as “uncompetitive-type inhibition”.

What follows are compounds tested against T1, fused TvG6PD::6PGL enzyme (assay: Time-course inactivation, second-order rate constant (k2)). Details: read-out: second-order rate constant of inactivation (k2).
Type: biochemical
Method: To determine the enzyme–inhibitor complex formation rate for each synthetic compound, we first calculated the pseudo-first-order inactivation constants (k1) by measuring the initial velocities at five fixed concentrations, at intervals between 0 and 120 min. […] We observed single-exponential decays of time-course inactivation for all the compounds examined in this study (Figure 3A,C,E,G). Additionally, as the synthetic compounds’ concentrations increased, the enzyme lost catalytic activity in a shorter incubation time; in contrast, the enzymatic activity of enzymes without compounds remained intact. The k1 values for each compound were calculated and plotted against their concentrations, and a linear behavior was obtained and fitted with the linear equation (Figure 3B,D,F,H). The calculated k2 values for JMM-3, CNZ-3, CNZ-17, and MCC-7 were: 0.33, 0.66, 0.38, and 0.26 M^−1 s^−1, respectively. It is important to mention that CNZ-3 formed the enzyme–inhibitor complex faster (k2 value of 0.66 M^−1 s^−1), regarding the CNZ-17 compound. This difference in the affinity to form the enzyme–inhibitor complex may be due to the p-chlorine moiety present in CNZ-3, unlike CNZ-17, which has a methoxy group in the same position.
Figure 3 Inactivation of fused G6PD::6PGL enzyme by chemical compounds. […] We obtained second-order rate constant values of inactivation (k2) of each of (B) JMM-3, (D) CNZ-3, (F) CNZ-17, and (H) CCM-7 by fitting the calculated k1 value versus the concentration of the compound. […] TEXT PRINTED IN THE PICTURE: (B) JMM-3: k2= 0.33 (M^-1* s^-1) | (D) CNZ-3: k2 = 0.66 (M^-1* s^-1) | (F) CNZ-17: k2 = 0.38 (M^-1* s^-1) | (H) MCC-7: k2 = 0.26 (M^-1* s^-1) DOUBTS OF THE COPYIST ABOUT THIS PICTURE: CNZ-3, k2: small print, 0.66 could be 0.68 or 0.86 / CNZ-17, k2: small print, 0.38 could be 0.36 or 0.88 / MCC-7, k2: small print, 0.26 could be 0.28; subscript of k not clearly readable / Panels D, F, H: the sign between M^-1 and s^-1 (asterisk) is not clearly readable
Second-order rate constants of inactivation (k2) were used to determine the inactivation rate of a chemical compound and the formation of the enzyme–inhibitor complex. Therefore, pseudo-first-order rate constants (k1) were determined for the recombinant G6PD::6PGL, adjusted at 0.2 mg/mL, and incubated with four different fixed concentrations of each compound at 37 °C. At the indicated times, a sample was withdrawn, and the residual activity was measured. First, we calculated the pseudo-first-order rate constants (k1) by fitting the residual activities data using a monoexponential decay equation: AR=A0 e^−kt , where AR is the residual activity at time t, A0 is the activity at the initial time, and k is the pseudo-first-order inactivation constant (min^−1). […]
For `O=C(COc1ccc(/C=C2\SC(=O)NC2=O)cc1)NC1CCN(Cc2ccccc2)CC1` [MCC-7], the kinact/KI was 0.26 M⁻¹ s⁻¹.
In the case of `O=C(Nc1ccc(Cl)cc1)Nc1ncc([N+](=O)[O-])s1` [CNZ-3], the kinact/KI is reported as 0.66 M⁻¹ s⁻¹.
Compound `COc1cc(CCC(=O)O)ccc1OCc1ccc(-c2ccccc2C#N)cc1` [JMM-3] has a kinact/KI of 0.33 M⁻¹ s⁻¹.
For `COc1ccc(NC(=O)Nc2ncc([N+](=O)[O-])s2)cc1` [CNZ-17], the kinact/KI was 0.38 M⁻¹ s⁻¹.

The compounds below were run against recombinant human G6PD (HsG6PD) (Homo sapiens, UniProt P11413) (assay: Inhibition of recombinant human G6PD by the selected compounds). Details: compound 400 μM.
recombinant human G6PD (HsG6PD), sequence (P11413 whole entry): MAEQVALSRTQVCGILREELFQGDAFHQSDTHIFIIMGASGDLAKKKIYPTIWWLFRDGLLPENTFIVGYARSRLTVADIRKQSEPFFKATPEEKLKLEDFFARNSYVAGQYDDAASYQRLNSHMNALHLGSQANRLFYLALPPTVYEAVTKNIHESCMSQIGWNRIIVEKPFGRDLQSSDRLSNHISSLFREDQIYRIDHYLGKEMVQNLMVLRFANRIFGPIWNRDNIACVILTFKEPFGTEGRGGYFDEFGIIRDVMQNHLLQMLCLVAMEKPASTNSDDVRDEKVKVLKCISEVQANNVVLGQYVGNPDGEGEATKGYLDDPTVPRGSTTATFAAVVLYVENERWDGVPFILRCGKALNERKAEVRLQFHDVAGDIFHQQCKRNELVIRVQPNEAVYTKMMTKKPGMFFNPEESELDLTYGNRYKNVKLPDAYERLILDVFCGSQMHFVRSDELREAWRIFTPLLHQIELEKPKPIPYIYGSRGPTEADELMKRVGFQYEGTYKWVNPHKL
Type: biochemical
Text: (§1) Here, we tested an in-house library of 55 compounds with some structural similarity to the previously reported molecules by Preuss et al.. […] In addition, we tested these synthetic compounds as potential recombinant human G6PD (HsG6PD) protein inhibitors. We observed that synthetic compounds, such as JMM-2, CNZ-3, CNZ-7, and CNZ-8, inhibited the fused TvG6PD::6PGL and the HsG6PD enzymes. For example, JMM-2 inhibited both enzymes by 81%, and CNZ-3 inhibited their catalytic activity by around 90%. Conversely, six of them, JMM-3, CNZ-16, CNZ-17, MCC-7, CMC-1, and TDA-5, inhibited the fused TvG6PD::6PGL enzyme activity in a more significant proportion regarding HsG6PD. […] The selective inhibition over the fused TvG6PD::6PGL enzyme may help improve the rational design of new drugs against this parasite without affecting the activity of HsG6PD.
In the case of `O=C(COc1ccc(/C=C2\SC(=O)NC2=O)cc1)NC1CCN(Cc2ccccc2)CC1` [MCC-7], the inhibition at 400 µM is reported as 11%.
`O=C(Nc1ccc(Cl)cc1)Nc1ncc([N+](=O)[O-])s1` [CNZ-3] showed an inhibition at 400 µM of about 90%.
In the case of `COc1ccc(NC(=O)Nc2ncc([N+](=O)[O-])s2)cc1` [CNZ-17], the inhibition at 400 µM is reported as 0%.

The compounds below were run against T1, fused TvG6PD::6PGL enzyme (assay: Orthogonal assay: IC50 by residual activity of TvG6PD::6PGL). Details: not given.
Type: biochemical
Method: Figure 2 Inactivation of the TvG6PD::6PGL enzyme with CNZ-3, MCC-7, JMM-3, and CNZ-17. The protein was adjusted at 0.2 mg/mL and incubated with increasing concentrations of each compound (0–800 μM) for 2 h at 37 °C. The IC50 values were determined by plotting the residual activity of the fused TvG6PD::6PGL enzyme versus compound concentrations. The assays were carried out in triplicate, and the data represent the mean ± standard error.
The compound concentration at which the enzyme loses 50% of its initial activity (IC50) was determined according to Hernández-Ochoa et al.. The G6PD::6PGL protein was adjusted to a 0.2 mg/mL concentration and incubated for 2 h at 37 °C, with increasing concentrations from 0 to 800 µM of the selected synthetic hit compounds. Then, the residual activity was measured, as mentioned above.
`O=C(COc1ccc(/C=C2\SC(=O)NC2=O)cc1)NC1CCN(Cc2ccccc2)CC1` [MCC-7] showed an IC50 of 260 µM.
With `O=C(Nc1ccc(Cl)cc1)Nc1ncc([N+](=O)[O-])s1` [CNZ-3] the IC50 was 93 µM.
`COc1cc(CCC(=O)O)ccc1OCc1ccc(-c2ccccc2C#N)cc1` [JMM-3] gave an IC50 of 155 µM.
For `COc1ccc(NC(=O)Nc2ncc([N+](=O)[O-])s2)cc1` [CNZ-17], the IC50 was 356 µM.

These compounds were tested against T1, fused TvG6PD::6PGL enzyme (assay: Screening of in-house library for inhibition of fused TvG6PD::6PGL catalytic activity). Details: read-out: G6PD::6PGL Inhibition (%), compound 400 μM, 0.2 mg/mL enzyme, 2 h at 37 °C.
Type: biochemical
Text: as §1
We tested an in-house library of 55 chemical compounds synthesized in the Medicinal Chemistry Laboratory from Facultad de Farmacia, Universidad Autónoma del Estado de Morelos. In-house libraries are advantageous in the discovery of novel bioactive small molecules. […] Subsequently, the residual activity was measured using a standard reaction mixture (1 mM G6P, 0.2 mM NADP^+, 0.1 mM Tris-HCl, and one mM MgCl2, pH 8.0). […]
Compound `COc1cc(CCC(=O)O)ccc1OCc1ccc(-c2ccccc2C#N)cc1` [JMM-3] has an inhibition at 400 µM of over 50%.
`COc1ccc(NC(=O)Nc2ncc([N+](=O)[O-])s2)cc1` [CNZ-17] gave an inhibition at 400 µM of over 50%.
